According to the CheMixHub viscosity set:
“And” between values parts separate entries of the source, which are not always exact repeats. Identical values can stand only once. ± gives the uncertainty stated by the source.

Test: xn = mol fraction of the nth substance listed

COCCOC + CC1COC(=O)O1
viscosity
Conditions | 298.15 K | 308.15 K | 318.15 K
101 kPa, x1 = 0.2 | 1.617 ± 0.015 mPa·s and 1.616 ± 0.015 mPa·s | – | –
101 kPa, x1 = 0.45 | 1.009 ± 0.01 mPa·s and 1.007 ± 0.01 mPa·s | – | –
101 kPa, x1 = 0.7 | 0.66 ± 0.007 mPa·s and 0.659 ± 0.007 mPa·s | – | –
101.33 kPa, x1 = 0.0493 | 2.227 ± 0.1 mPa·s | 1.833 ± 0.085 mPa·s | 1.561 ± 0.074 mPa·s
101.33 kPa, x1 = 0.0999 | 1.96 ± 0.091 mPa·s | 1.659 ± 0.078 mPa·s | 1.417 ± 0.068 mPa·s
101.33 kPa, x1 = 0.1524 | 1.752 ± 0.082 mPa·s | 1.495 ± 0.071 mPa·s | 1.277 ± 0.062 mPa·s
101.33 kPa, x1 = 0.1867 | 1.637 ± 0.077 mPa·s | 1.402 ± 0.067 mPa·s | –
101.33 kPa, x1 = 0.2298 | 1.507 ± 0.071 mPa·s | 1.297 ± 0.062 mPa·s | 1.113 ± 0.055 mPa·s
101.33 kPa, x1 = 0.2769 | – | 1.183 ± 0.058 mPa·s | –
101.33 kPa, x1 = 0.3128 | 1.289 ± 0.062 mPa·s | – | 0.9676 ± 0.048 mPa·s
101.33 kPa, x1 = 0.3708 | 1.162 ± 0.057 mPa·s | 0.9973 ± 0.049 mPa·s | 0.881 ± 0.044 mPa·s
101.33 kPa, x1 = 0.4036 | 1.097 ± 0.054 mPa·s | 0.9447 ± 0.047 mPa·s | 0.8272 ± 0.042 mPa·s
101.33 kPa, x1 = 0.4686 | 0.9699 ± 0.048 mPa·s | – | –
101.33 kPa, x1 = 0.5193 | 0.8882 ± 0.045 mPa·s | 0.7779 ± 0.04 mPa·s | 0.6827 ± 0.036 mPa·s
101.33 kPa, x1 = 0.5704 | – | 0.7178 ± 0.037 mPa·s | 0.6389 ± 0.034 mPa·s
101.33 kPa, x1 = 0.6382 | 0.7272 ± 0.038 mPa·s | – | 0.5728 ± 0.031 mPa·s
101.33 kPa, x1 = 0.6767 | 0.6885 ± 0.036 mPa·s | 0.6105 ± 0.033 mPa·s | 0.5449 ± 0.03 mPa·s
101.33 kPa, x1 = 0.7589 | 0.6047 ± 0.032 mPa·s | – | 0.4782 ± 0.027 mPa·s
101.33 kPa, x1 = 0.8103 | 0.5589 ± 0.03 mPa·s | 0.5052 ± 0.028 mPa·s | 0.4571 ± 0.026 mPa·s
101.33 kPa, x1 = 0.8432 | 0.5429 ± 0.03 mPa·s | 0.4728 ± 0.027 mPa·s | 0.4376 ± 0.025 mPa·s
101.33 kPa, x1 = 0.9035 | 0.4872 ± 0.027 mPa·s | 0.4381 ± 0.025 mPa·s | 0.397 ± 0.024 mPa·s
101.33 kPa, x1 = 0.9483 | 0.4564 ± 0.026 mPa·s | 0.4073 ± 0.024 mPa·s | 0.375 ± 0.023 mPa·s
101.33 kPa, x2 = 0.2217 | 0.5911 ± 0.0084 mPa·s | 0.5265 ± 0.0081 mPa·s | 0.4711 ± 0.0071 mPa·s
101.33 kPa, x2 = 0.3749 | 0.7628 ± 0.01 mPa·s | 0.6716 ± 0.0098 mPa·s | 0.5956 ± 0.0084 mPa·s
101.33 kPa, x2 = 0.5841 | 1.099 ± 0.019 mPa·s | 0.9453 ± 0.015 mPa·s | 0.8342 ± 0.013 mPa·s
101.33 kPa, x2 = 0.7836 | 1.594 ± 0.031 mPa·s | 1.356 ± 0.024 mPa·s | 1.168 ± 0.019 mPa·s

COCCOC + CCCCCCCO
101 kPa
Conditions | viscosity [mPa·s]
293.15 K, x1 = 0.04689 | 5.696 ± 0.06
293.15 K, x1 = 0.1108 | 4.364 ± 0.046
293.15 K, x1 = 0.1958 | 3.168 ± 0.033
293.15 K, x1 = 0.2906 | 2.308 ± 0.024
293.15 K, x1 = 0.402 | 1.645 ± 0.017
293.15 K, x1 = 0.4906 | 1.283 ± 0.013
293.15 K, x1 = 0.6674 | 0.843 ± 0.009
293.15 K, x1 = 0.7068 | 0.768 ± 0.008
293.15 K, x1 = 0.8006 | 0.631 ± 0.007
293.15 K, x1 = 0.894 | 0.525 ± 0.006
293.15 K, x1 = 0.948 | 0.477 ± 0.005
303.15 K, x1 = 0.03301 | 4.403 ± 0.047
303.15 K, x1 = 0.1088 | 3.286 ± 0.035
303.15 K, x1 = 0.1924 | 2.49 ± 0.026
303.15 K, x1 = 0.2936 | 1.802 ± 0.019
303.15 K, x1 = 0.4015 | 1.325 ± 0.014
303.15 K, x1 = 0.4903 | 1.066 ± 0.011
303.15 K, x1 = 0.594 | 0.842 ± 0.009
303.15 K, x1 = 0.7001 | 0.671 ± 0.007
303.15 K, x1 = 0.8062 | 0.542 ± 0.006
303.15 K, x1 = 0.8901 | 0.467 ± 0.005
303.15 K, x1 = 0.9469 | 0.425 ± 0.005
313.15 K, x1 = 0.04399 | 3.176 ± 0.034
313.15 K, x1 = 0.1188 | 2.473 ± 0.026
313.15 K, x1 = 0.1968 | 1.933 ± 0.021
313.15 K, x1 = 0.2941 | 1.478 ± 0.016
313.15 K, x1 = 0.404 | 1.121 ± 0.012
313.15 K, x1 = 0.4883 | 0.918 ± 0.01
313.15 K, x1 = 0.6006 | 0.717 ± 0.008
313.15 K, x1 = 0.6962 | 0.591 ± 0.006
313.15 K, x1 = 0.8094 | 0.482 ± 0.005
313.15 K, x1 = 0.9 | 0.41 ± 0.004
313.15 K, x1 = 0.9404 | 0.386 ± 0.004

CCCCCCOC(C)=O + CCCCCO
viscosity [mPa·s], 101.33 kPa
Conditions | x1 = 0.1057 | x1 = 0.2038 | x1 = 0.3074 | x1 = 0.4005 | x1 = 0.5019 | x1 = 0.6009 | x1 = 0.7083 | x1 = 0.8029 | x1 = 0.9041
293.15 K | 3.347 ± 0.044 | 2.798 ± 0.039 | 2.346 ± 0.034 | 2.028 ± 0.031 | 1.755 ± 0.028 | 1.548 ± 0.026 | 1.373 ± 0.024 | 1.253 ± 0.023 | 1.153 ± 0.022
303.15 K | 2.392 ± 0.034 | 2.002 ± 0.03 | 1.682 ± 0.027 | 1.456 ± 0.025 | 1.262 ± 0.023 | 1.115 ± 0.021 | 0.991 ± 0.02 | 0.906 ± 0.019 | 0.835 ± 0.018
313.15 K | 1.889 ± 0.029 | 1.594 ± 0.026 | 1.352 ± 0.024 | 1.181 ± 0.022 | 1.035 ± 0.02 | 0.924 ± 0.019 | 0.83 ± 0.018 | 0.766 ± 0.018 | 0.712 ± 0.017

OCCNCCO + OCCO
298 K, 101.3 kPa
Conditions | viscosity [mPa·s]
x1 = 0.0049 | 17.27 ± 0.62
x1 = 0.01 | 17.72 ± 0.64
x1 = 0.044 | 20.95 ± 0.75
x1 = 0.07152 | 25.16 ± 0.89
x1 = 0.09514 | 28.03 ± 0.98
x1 = 0.1331 | 37.15 ± 1.3

O=C(O)c1ccccc1 + CC(C)=O
viscosity, 101 kPa
Conditions | 298.15 K | 303.15 K | 308.15 K | 313.15 K | 318.15 K
x1 = 0.201 | – | – | 0.6647 ± 0.0057 mPa·s | – | 0.5884 ± 0.0052 mPa·s
x1 = 0.2103 | 0.755 ± 0.02 mPa·s | 0.7075 ± 0.019 mPa·s | 0.6647 ± 0.018 mPa·s | 0.6278 ± 0.017 mPa·s | 0.5884 ± 0.016 mPa·s
x1 = 0.213 | – | – | 0.6741 ± 0.0058 mPa·s | – | 0.5924 ± 0.0051 mPa·s
x1 = 0.229 | – | 0.7776 ± 0.021 mPa·s | 0.7283 ± 0.019 mPa·s and 0.7283 ± 0.0061 mPa·s | 0.6819 ± 0.018 mPa·s | 0.6407 ± 0.017 mPa·s and 0.6407 ± 0.0057 mPa·s
x1 = 0.247 | – | – | 0.75 ± 0.0063 mPa·s | – | 0.6571 ± 0.0057 mPa·s

COC(C)=O + ClCCCl
303.15 K, 101.3 kPa
Conditions | viscosity [mPa·s]
x1 = 0.1016 | 0.6754 ± 0.0059
x1 = 0.199 | 0.6342 ± 0.0058
x1 = 0.2978 | 0.594 ± 0.0056
x1 = 0.4014 | 0.5517 ± 0.0054
x1 = 0.4966 | 0.5168 ± 0.0053
x1 = 0.5959 | 0.4819 ± 0.0052
x1 = 0.6976 | 0.4445 ± 0.005
x1 = 0.8973 | 0.378 ± 0.0048

CCC(C)=O + CCCCn1cc[n+](C)c1.F[B-](F)(F)F
298.15 K, 101.33 kPa
Conditions | viscosity [mPa·s]
x2 = 0.7996 | 42.25 ± 2.9
x2 = 0.8995 | 67.85 ± 6

c1ccc2ncccc2c1 + Cc1cccc(O)c1
viscosity [mPa·s], 101.3 kPa
Conditions | x1 = 0.0998 | x1 = 0.198 | x1 = 0.3012 | x1 = 0.3984 | x1 = 0.4984 | x1 = 0.5985 | x1 = 0.6965 | x1 = 0.798 | x1 = 0.8948
298 K | 15.26 ± 0.35 | 19.93 ± 0.52 | 25.3 ± 0.72 | 22.87 ± 0.62 | 15.79 ± 0.36 | 11.02 ± 0.19 | 7.376 ± 0.094 | 5.594 ± 0.047 | 4.358 ± 0.041
303 K | 11.51 ± 0.22 | 15.03 ± 0.34 | 19.24 ± 0.49 | 17.85 ± 0.43 | 12.71 ± 0.24 | 8.925 ± 0.12 | 6.266 ± 0.058 | 4.872 ± 0.042 | 3.761 ± 0.033
308 K | 8.895 ± 0.14 | 11.46 ± 0.21 | 15.1 ± 0.33 | 14.05 ± 0.29 | 9.986 ± 0.16 | 7.269 ± 0.082 | 5.301 ± 0.046 | 4.223 ± 0.037 | 3.291 ± 0.028
313 K | 6.912 ± 0.084 | 8.917 ± 0.13 | 11.94 ± 0.22 | 11.42 ± 0.2 | 8.111 ± 0.11 | 6.172 ± 0.057 | 4.512 ± 0.042 | 3.686 ± 0.032 | 2.959 ± 0.025
318 K | 5.586 ± 0.051 | 7.128 ± 0.083 | 9.595 ± 0.18 | 9.188 ± 0.16 | 6.608 ± 0.065 | 5.184 ± 0.048 | 3.835 ± 0.031 | 3.204 ± 0.029 | 2.62 ± 0.022
